Key:
CDK1/CyclinB (h) = CDK1/CyclinB (h) (Homo sapiens, UniProt P06493); assay: CDK1/CyclinB human kinase inhibition, Invitrogen's FRET assay (Z'lyte); assay type: biochemical; conditions: read-out: CDK1 pIC50 (converted)
How it was run: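 Read-out is the 460 nm/538 nm emission ratio (390 nm excitation) after a 60 min protease development step. Before that, 10 μM ATP and 2 μM Z'lyte Ser/Thr peptide 12 react 60 min at room temperature with 0.2 μg/ml human CDK1/CyclinB in Hepes pH 7.5 containing MgCl2, EGTA and Brij-35.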

PLK3 (h) = PLK3 (h) (Homo sapiens, UniProt Q9H4B4); assay: PLK3 human kinase inhibition, SPA; assay type: biochemical; conditions: read-out: PLK3 pIC50 (converted)
How it was run: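 Radiometric scintillation proximity format at pH 8.0 (Hepes, MnCl2, DTT). The 2 μM biotin-peptide substrate is phosphorylated by PLK3 (h) (30 μg/ml) using 0.1 μM ATP traced with 33P, for 20 min at room temperature. EDTA stop; phosphopeptide captured on streptavidin beads and imaged.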

U87-MG = assay: Cellular proliferation assay (Alamar blue), U87-MG; assay type: cell-based; conditions: Homo sapiens, U-87 MG; 10% FCS; 72 hours with compound; Alamar blue 6 h; read-out: U87-MG (cellular proliferation assay, Table 4) (converted)
How it was run: (§1)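 Alamar blue conversion, quantified fluorimetrically (544 nm/590 nm), gave viable cell number relative to untreated controls; dye time 4 h for HCT-116, 6 h for U87-MG, 24 h for A2780 and MDA-MB-231. Compound exposure lasted 72 h, after 24 h pre-seeding, with 10% FCS, 37 °C, 5% CO2.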

A2780 = assay: Cellular proliferation assay (Alamar blue), A2780; assay type: cell-based; conditions: Homo sapiens, 10% FCS, 72 hours with compound, Alamar blue 24 h, read-out: A2780 (cellular proliferation assay, Table 4) (converted)
How it was run: as §1

Chain of CDK1/CyclinB (h) (P06493 whole entry): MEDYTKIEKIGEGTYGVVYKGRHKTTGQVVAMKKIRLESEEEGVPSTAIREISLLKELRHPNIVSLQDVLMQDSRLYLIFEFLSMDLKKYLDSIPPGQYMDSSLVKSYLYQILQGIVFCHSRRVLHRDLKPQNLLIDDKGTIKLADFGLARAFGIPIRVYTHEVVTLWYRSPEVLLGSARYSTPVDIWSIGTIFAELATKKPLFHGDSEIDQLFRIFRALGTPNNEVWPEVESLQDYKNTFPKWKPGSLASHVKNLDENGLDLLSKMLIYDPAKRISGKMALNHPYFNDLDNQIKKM
Chain of CDK1/CyclinB (h) (P14635 whole entry partner): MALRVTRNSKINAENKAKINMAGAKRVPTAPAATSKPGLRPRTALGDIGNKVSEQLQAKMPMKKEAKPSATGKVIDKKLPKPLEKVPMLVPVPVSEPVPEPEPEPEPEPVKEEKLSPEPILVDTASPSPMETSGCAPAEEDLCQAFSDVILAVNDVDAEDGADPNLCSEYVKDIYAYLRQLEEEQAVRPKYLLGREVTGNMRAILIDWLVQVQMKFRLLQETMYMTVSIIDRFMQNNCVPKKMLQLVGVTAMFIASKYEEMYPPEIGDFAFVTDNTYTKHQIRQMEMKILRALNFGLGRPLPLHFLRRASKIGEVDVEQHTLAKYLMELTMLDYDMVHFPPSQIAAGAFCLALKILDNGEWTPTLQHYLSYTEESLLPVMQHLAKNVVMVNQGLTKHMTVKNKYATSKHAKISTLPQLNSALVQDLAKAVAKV
Chain of PLK3 (h) (Q9H4B4 whole entry): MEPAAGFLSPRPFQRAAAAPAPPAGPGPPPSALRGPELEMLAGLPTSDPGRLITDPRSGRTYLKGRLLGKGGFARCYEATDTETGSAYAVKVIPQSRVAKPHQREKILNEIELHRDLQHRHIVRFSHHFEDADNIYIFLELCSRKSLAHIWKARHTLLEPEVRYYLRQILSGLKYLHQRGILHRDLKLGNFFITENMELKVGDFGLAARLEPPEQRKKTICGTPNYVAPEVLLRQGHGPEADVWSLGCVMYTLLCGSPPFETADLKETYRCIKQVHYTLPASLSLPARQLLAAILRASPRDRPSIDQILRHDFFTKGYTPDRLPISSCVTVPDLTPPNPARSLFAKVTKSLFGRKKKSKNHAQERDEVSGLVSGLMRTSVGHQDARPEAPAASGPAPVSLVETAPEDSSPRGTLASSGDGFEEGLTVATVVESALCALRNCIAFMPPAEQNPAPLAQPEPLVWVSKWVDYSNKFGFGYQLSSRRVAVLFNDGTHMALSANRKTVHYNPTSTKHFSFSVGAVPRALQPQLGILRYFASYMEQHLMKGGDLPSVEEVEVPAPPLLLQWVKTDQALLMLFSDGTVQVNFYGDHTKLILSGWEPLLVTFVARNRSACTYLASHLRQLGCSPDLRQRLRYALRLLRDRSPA

SMILES | IC50 (CDK1/CyclinB (h)) [µM] | IC50 (PLK3 (h)) [µM] | IC50 (U87-MG) [µM] | IC50 (A2780) [µM] | melting point [°C]
C[C@H]1NCc2cc(ccc2N2CCOCC2)Nc2nccc(n2)-c2ccc(cc2)OCCCNC1=O [Compound 86] | > 10 | > 10 | > 10 | > 10 | –
O=C1CN2CCN(CC2)Cc2cc(ccc2N2CCOCC2)Nc2nccc(n2)-c2cccc(c2)OCCCN1 [Compound 103] | > 10 | > 10 | > 10 | > 10 | –
CN1CCCNC(=O)[C@H](CO)NCc2cccc(c2)Nc2nccc(n2)-c2ccc(cc2)C1 [Compound 113] | > 10 | > 10 | > 10 | > 10 | –
O=C1NCCNCc2ccc(cc2)-c2ccnc(n2)Nc2ccc(N3CCOCC3)c(c2)CN[C@H]1CO [Compound 115] | > 10 | > 10 | > 10 | > 10 | –
COc1ccc2cc1CNCCNC(=O)CN1CCN(CC1)Cc1cc(ccc1N1CCOCC1)Nc1nccc-2n1 [Compound 126] | > 10 | > 10 | > 10 | 5.37 | –
COc1ccc2cc1CN(C)CCCNC(=O)CN1CCN(CC1)Cc1cc(cc(NC(C)C)c1)Nc1nccc-2n1 [Compound 130] | 7.76 | > 10 | > 10 | > 10 | –
COc1ccc2cc1CN(C)CCCNC(=O)CN1CCN(CC1)Cc1cc(cc(N3CCOCC3)c1)Nc1nccc-2n1 [Compound 141] | > 10 | > 10 | 5.89 | 8.91 | –
COc1ccc2cc1CN(C)CCNC(=O)CN1CCN(CC1)Cc1cc(cc(NC(C)C)c1)Nc1nccc-2n1 [Compound 142] | 8.51 | > 10 | 5.62 | > 10 | –
COc1ccc2cc1CN(C)CCCNC(=O)CN1CCN(CC1)Cc1cc(Br)cc(c1)Nc1nccc-2n1 [Compound 144] | > 10 | > 10 | 9.33 | > 10 | –
COc1ccc2cc1CN(C)CCNC(=O)CN1CCN(CC1)Cc1cc(cc(N3CCOCC3)c1)Nc1nccc-2n1 [Compound 145] | > 10 | > 10 | > 10 | > 10 | –
COc1ccc2cc1CN(C)CCCNC(=O)CN1CCN(CC1)Cc1cccc(c1)Nc1nccc-2n1 [Compound 146] | > 10 | > 10 | > 10 | > 10 | –
COc1ccc2cc1CN(C)CCNC(=O)CN1CCN(CC1)Cc1cccc(c1)Nc1nccc-2n1 [Compound 147] | > 10 | > 10 | > 10 | > 10 | –
CC(C)Nc1cc2cc(c1)Nc1nccc(n1)-c1ccc(cc1)CN(C)CCNC(=O)[C@@H]1CCCN1C2 [Compound 153] | 2.82 | > 10 | 5.75 | > 10 | –
CN1CCNC(=O)[C@@H]2CCCN2Cc2cc(Br)cc(c2)Nc2nccc(n2)-c2ccc(cc2)C1 [Compound 155] | > 10 | > 10 | > 10 | > 10 | –
O=C1NCCCNCc2ccc(cc2)-c2ccnc(n2)Nc2ccc(N3CCOCC3)c(c2)CN2C[C@H](O)C[C@@H]12 [Compound 169] | > 10 | > 10 | > 10 | > 10 | –
CN1CCCNC(=O)[C@@H]2CCCN2Cc2cccc(c2)Nc2nccc(n2)-c2ccc(cc2)C1 [Compound 173] | > 10 | > 10 | > 10 | > 10 | –
COc1ccc2cc1CN(C)CCNC(=O)[C@@H]1CCCN1Cc1cccc(c1)Nc1nccc-2n1 [Compound 175] | > 10 | > 10 | > 10 | > 10 | –

Next, values leading:

IC50 (CDK1/CyclinB (h)) [µM] | IC50 (PLK3 (h)) [µM] | IC50 (U87-MG) [µM] | IC50 (A2780) [µM] | melting point [°C] | SMILES
0.0562 | > 10 | 1.07 | 1.45 | 253.6 to 254.9 | O=C1NCCCc2cc(ccn2)-c2ccnc(n2)Nc2cccc(c2)CN[C@H]1CO [Compound 19]
0.105 | > 10 | 2.82 | 7.59 | 243.2 to 244.3 | O=C1CN2CCN(CC2)Cc2cccc(c2)Nc2nccc(n2)-c2ccnc(c2)CCCN1 [Compound 21]
> 10 | > 10 | 9.33 | > 10 | – | O=C1NCCNc2cc(ccn2)-c2ccnc(n2)Nc2ccc(N3CCOCC3)c(c2)CN2CCC1CC2 [Compound 84]
7.08 | > 10 | 6.17 | 8.71 | – | C[C@H]1NCc2cc(ccc2N2CCOCC2)Nc2nccc(n2)-c2cccc(c2)OCCCNC1=O [Compound 87]
4.79 | > 10 | 3.55 | 3.39 | – | C[C@@H]1NCc2cc(ccc2N2CCOCC2)Nc2nccc(n2)-c2cccc(c2)OCCCNC1=O [Compound 88]
> 10 | > 10 | > 10 | 6.76 | – | O=C1NCCCOc2cccc(c2)-c2ccnc(n2)Nc2ccc(N3CCOCC3)c(c2)CN[C@H]1CO [Compound 89]
> 10 | > 10 | > 10 | > 10 | – | O=C1NCCCOc2cccc(c2)-c2ccnc(n2)Nc2ccc(N3CCOCC3)c(c2)CN[C@H]1Cc1ccccc1 [Compound 91]
1.02 | > 10 | 0.178 | 0.525 | – | O=C1NCCCOc2ccc(cc2)-c2ccnc(n2)Nc2ccc(N3CCOCC3)c(c2)CN2CCC1CC2 [Compound 92]
> 10 | > 10 | 4.17 | 6.46 | – | O=C1NCCCOc2cccc(c2)-c2ccnc(n2)Nc2ccc(N3CCOCC3)c(c2)CN2CCC[C@@H]12 [Compound 96]
> 10 | > 10 | 9.77 | > 10 | – | CN1CCNC(=O)CN2CCN(CC2)Cc2cc(cc(N3CCOCC3)c2)Nc2nccc(n2)-c2ccc(cc2)C1 [Compound 135]
5.13 | > 10 | > 10 | 9.77 | – | O=C1NCCNc2cc(ccn2)-c2ccnc(n2)Nc2ccc(N3CCOCC3)c(c2)CN2CCCC12 (centres unmarked) [Compound 161]
> 10 | > 10 | 2.09 | > 10 | – | COc1ccc2cc1CN(C)CCCNC(=O)[C@@H]1CCCN1Cc1cc(cc(NC(C)C)c1)Nc1nccc-2n1 [Compound 164]
> 10 | > 10 | > 10 | > 10 | – | COc1ccc2cc1CNCCNC(=O)[C@@H]1C[C@@H](O)CN1Cc1cc(ccc1N1CCOCC1)Nc1nccc-2n1 [Compound 177]
> 10 | > 10 | 8.91 | > 10 | – | COc1ccc2cc1CNCCNC(=O)[C@@H]1CCCN1Cc1cc(ccc1N1CCOCC1)Nc1nccc-2n1 [Compound 178]
> 10 | > 10 | > 10 | > 10 | – | COc1ccc2cc1CN(C)CCCNC(=O)[C@@H]1CCCN1Cc1cc(cc(N3CCOCC3)c1)Nc1nccc-2n1 [Compound 179]
> 10 | > 10 | > 10 | > 10 | – | COc1ccc2cc1CN(C)CCCNC(=O)[C@@H]1CCCN1Cc1cccc(c1)Nc1nccc-2n1 [Compound 180]

Reference: patent US8609836B2, “4-aryl-2-anilino-pyrimidines” (Janssen Pharmaceutica NV, priority 2008, dated 2013)
